Experimental data from ChEMBL document CHEMBL5104169, “Design and synthesis of mogrol derivatives modified on a ring with anti-inflammatory and anti-proliferative activities” (Bioorg Med Chem Lett, 2022).
Activity calls are given as the source filed them. The rule behind the calls is not given here.

Key:
[1] = tested on: RAW264.7; assay: Cytotoxicity against mouse RAW264.7 cells at 10 uM measured after 24 hrs by CCK-8 assay relative to control; assay type: toxicity, cell-based; conditions: raw264.7, 24 h
[2] = tested on: A549; assay: Antiproliferative activity against human A549 cells; assay type: functional, cell-based
[3] = tested on: NCI-H460; assay: Antiproliferative activity against human NCI-H460 cells; assay type: functional, cell-based
[4] = tested on: NCI-H1299; assay: Antiproliferative activity against human NCI-H1299 cells; assay type: functional, cell-based
[5] = tested on: NCI-H1975; assay: Antiproliferative activity against human NCI-H1975 cells; assay type: functional, cell-based
[6] = tested on: NCI-H1299; assay: Induction of cell cycle arrest in human NCI-H1299 cells assessed as accumulation G1 phase at 2 uM incubated for 72 hrs (reference value: 40.25%); assay type: functional
[7] = tested on: NCI-H1299; assay: Induction of cell cycle arrest in human NCI-H1299 cells assessed as accumulation G2 phase at 2 uM incubated for 72 hrs (reference value: 16.08%); assay type: functional
[8] = tested on: NCI-H1299; assay: Induction of cell cycle arrest in human NCI-H1299 cells assessed as accumulation S phase at 2 uM incubated for 72 hrs (reference value: 43.67%); assay type: functional
[9] = tested on: NCI-H1299; assay: Induction of cell cycle arrest in human NCI-H1299 cells assessed as accumulation G1 phase at 8 uM incubated for 72 hrs (reference value: 40.25%); assay type: functional
[10] = tested on: NCI-H1299; assay: Induction of cell cycle arrest in human NCI-H1299 cells assessed as accumulation G2 phase at 8 uM incubated for 72 hrs (reference value: 16.08%); assay type: functional
[11] = tested on: NCI-H1299; assay: Induction of cell cycle arrest in human NCI-H1299 cells assessed as accumulation S phase at 8 uM incubated for 72 hrs (reference value: 43.67%); assay type: functional
[12] = tested on: NCI-H1975; assay: Induction of cell cycle arrest in human NCI-H1975 cells assessed as accumulation G1 phase at 2 uM incubated for 72 hrs (reference value: 66.36%); assay type: functional
[13] = tested on: NCI-H1975; assay: Induction of cell cycle arrest in human NCI-H1975 cells assessed as accumulation G2 phase at 2 uM incubated for 72 hrs (reference value: 11.97%); assay type: functional
[14] = tested on: NCI-H1975; assay: Induction of cell cycle arrest in human NCI-H1975 cells assessed as accumulation S phase at 2 uM incubated for 72 hrs (reference value: 22.67%); assay type: functional
[15] = tested on: NCI-H1975; assay: Induction of cell cycle arrest in human NCI-H1975 cells assessed as accumulation G1 phase at 8 uM incubated for 72 hrs (reference value: 66.36%); assay type: functional
[16] = tested on: NCI-H1975; assay: Induction of cell cycle arrest in human NCI-H1975 cells assessed as accumulation G2 phase at 8 uM incubated for 72 hrs (reference value: 11.97%); assay type: functional
[17] = tested on: NCI-H1975; assay: Induction of cell cycle arrest in human NCI-H1975 cells assessed as accumulation S phase at 8 uM incubated for 72 hrs (reference value: 22.67%); assay type: functional
[18] = tested on: NCI-H1975; assay: Antiproliferative activity against human NCI-H1975 cells assessed as decrease in p-p65 expression at 2 to 8 uM measured after 72 hrs by western blot analysis; assay type: functional, cell-based; conditions: dose 2-8 µM

IC50 [2]: 11.1 µM
IC50 [3]: 15.7 µM
IC50 [4]: 8.39 µM
IC50 [5]: 7.24 µM
SMILES: C[C@H](CC[C@@H](O)C(C)(C)O)[C@H]1CC[C@@]2(C)[C@@H]3CC=C4[C@@H](C/C(=C\c5ccncc5)C(=O)C4(C)C)[C@]3(C)C(=O)C[C@]12C
Activity [1]: Toxic
Activity [6]: 42.49%
Activity [7]: 17.4%
Activity [8]: 40.12%
Activity [9]: 50.5%
Activity [10]: 16.38%
Activity [11]: 33.12%
Activity [12]: 66.51%
Activity [13]: 12.84%
Activity [14]: 20.66%
Activity [15]: 83.96%
Activity [16]: 6.38%
Activity [17]: 9.67%
Activity [18]: Active
